Results reported in patent publication US11932658B2 (BRISTOL-MYERS SQUIBB COMPANY, priority 2016, dated 2024).

Target: T1, PAR4 (Homo sapiens, UniProt Q96RI0)
T1 construct: expressed in transfected cells; host or cells: HEK293 PAR4 Clone 1.2A (BMS Arctic ID 383940)
T1 sequence (Q96RI0 18-385): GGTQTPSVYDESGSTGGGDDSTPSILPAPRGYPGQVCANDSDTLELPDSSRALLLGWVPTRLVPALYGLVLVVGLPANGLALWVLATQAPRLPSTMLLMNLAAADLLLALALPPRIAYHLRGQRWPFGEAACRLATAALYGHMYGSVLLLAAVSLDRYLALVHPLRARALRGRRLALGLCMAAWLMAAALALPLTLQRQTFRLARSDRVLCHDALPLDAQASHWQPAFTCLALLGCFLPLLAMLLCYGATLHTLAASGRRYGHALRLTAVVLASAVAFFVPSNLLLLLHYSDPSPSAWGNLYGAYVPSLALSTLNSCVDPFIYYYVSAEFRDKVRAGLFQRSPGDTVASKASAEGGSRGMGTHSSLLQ
Experiment: PAR4 FLIPR assay (antagonism of agonist peptide-induced calcium mobilization)
Type: cell-based
Outline: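 Antagonism was taken as block of calcium mobilization evoked by the agonist peptide H-Ala-Phe(4-F)-Pro-Gly-Trp-Leu-Val-Lys-Asn-[…]-NH2, added after 30 min room-temperature compound preincubation in dye-loaded PAR4-transfected HEK293 cells (endogenous PAR1). Fluorescence was read on FDSS, with compound addition alone used as the agonist counter-screen; values come from 11-point concentration-response curves.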

SMILES	IC50 [nM]
COc1cnc2c(-c3nc4c(C(O)C5(C)CCCCC5)cc5c(c4s3)OCCO5)cc(C)cc2n1 (stereo not shown) [Example 278, (2-(2-methoxy-7-methylquinoxalin-5-yl)-7,8-dihydro-[1,4]dioxino[2′,3′:3,4]benzo[1,2-d]thiazol-4-yl)(1-methylcyclohexyl)methanol]	19
COc1cnc2c(-c3nc4cc(F)c5c(c4s3)C[C@H](COC(=O)Nc3cnc(CCO)nc3)O5)cc(C)cc2n1 [Example 155, (R)-(5-fluoro-2-(2-methoxy-7-methylquinoxalin-5-yl)-7,8-dihydrobenzofuro[5,4-d]thiazo 1-7-yl)methyl (2-(2-hydroxyethyl)pyrimidin-5-yl)carbamate]	13
COc1cnc2c(-c3nc4c(Cl)cc5c(c4s3)OC[C@H](COC(=O)Nc3cncc(C)c3)O5)cc(C)cc2n1 [Example 63]	4.3
COc1cnc2c(-c3nc4c(C)cc5c(c4s3)OCC(COC(=O)Nc3ccc(C)nc3)O5)cc(Cl)cc2n1 (stereo not shown) [Example 97, (2-(7-chloro-2-methoxyquinoxalin-5-yl)-4-methyl-7,8-dihydro-[1,4]dioxino[2′,3′:3,4]benzo[1,2-d]thiazol-7-yl)methyl (6-methylpyridin-3-yl)carbamate]	64
COc1cnc2c(-c3nc4c(F)cc5c(c4s3)OC(COC(=O)Nc3ccccc3)CO5)cc(C)cc2n1 (stereo not shown) [Example 24, (4-fluoro-2-(2-methoxy-7-methylquinoxalin-5-yl)-7,8-dihydro-[1,4]dioxino[2′,3′:3,4]benzo[1,2-d]thiazol-8-yl)methyl phenylcarbamate]	9
COc1cnc2c(-c3nc4cc(F)c5c(c4s3)[C@@H](C)[C@H](CO)O5)cc(C)cc2n1 [Example 239, ((7R,8R)-5-fluoro-2-(2-methoxy-7-methylquinoxalin-5-yl)-8-methyl-7,8-dihydrobenzofuro[5,4-d]thiazol-7-yl)methanol]	49
COc1cnc2c(-c3nc4c(F)cc5c(c4s3)OC[C@H](COC(=O)Nc3cccnc3)O5)cc(C)cc2n1 [Example 70, (R)-(4-fluoro-2-(2-methoxy-7-methylquinoxalin-5-yl)-7,8-dihydro-[1,4]dioxino[2′,3′:3,4]benzo[1,2-d]thiazol-7-yl)methyl pyridin-3-ylcarbamate]	25
COc1cnc2c(-c3nc4c(C)cc5c(c4s3)OCC(COC(=O)Nc3ccc(NC(C)=O)nc3)O5)cc(C)cc2n1 (stereo not shown) [Example 140, (2-(2-methoxy-7-methylquinoxalin-5-yl)-4-methyl-7,8-dihydro-[1,4]dioxino[2′,3′:3,4]benzo[1,2-d]thiazol-7-yl)methyl (6-acetamidopyridin-3-yl)carbamate]	230
COC(=O)[C@@H]1Cc2c(ccc3nc(-c4cc(C)cc5nc(OC)cnc45)sc23)O1 [Example 156, (S)-methyl 2-(2-methoxy-7-methylquinoxalin-5-yl)-7,8-dihydrobenzofuro[5,4-d]thiazole-7-carboxylate]	28
COc1cnc2c(-c3nc4c(C)cc5c(c4s3)OCC(COC(=O)Oc3cccnc3)O5)cc(C)cc2n1 (stereo not shown) [Example 6, (2-(2-methoxy-7-methylquinoxalin-5-yl)-4-methyl-7,8-dihydro-[1,4]dioxino[2′,3′:3,4]benzo[1,2-d]thiazol-7-yl)methyl pyridin-3-yl carbonate]	10
COc1cnc2c(-c3nc4ccc5c(c4s3)C(C)C(CO)O5)cc(C)cc2n1 (stereo not shown) [Example 189, (2-(2-methoxy-7-methylquinoxalin-5-yl)-8-methyl-7,8-dihydrobenzofuro[5,4-d]thiazol-7-yl)methanol]	11
COc1cnc2c(-c3nc4ccc5c(c4s3)C[C@@H](C(C)O)O5)cc(C)cc2n1 (mixture of isomers) [Example 190]	24
COc1cnc2c(-c3nc4ccc5c(c4s3)C[C@@H](CNC(=O)OC3CCCOC3)O5)cc(C)cc2n1 (stereo partly drawn) [Example 234, Tetrahydro-2H-pyran-3-yl (((S)-2-(2-methoxy-7-methylquinoxalin-5-yl)-7,8-dihydrobenzofuro[5,4-d]thiazol-7-yl)methyl)carbamate]	4.3
COc1cnc2c(-c3nc4cc(F)c5c(c4s3)C[C@H](COC(=O)Nc3ccc(C(=O)N4CCOCC4)cc3)O5)cc(C)cc2n1 [Example 169, (R)-(5-fluoro-2-(2-methoxy-7-methylquinoxalin-5-yl)-7,8-dihydrobenzofuro[5,4-d]thiazol-7-yl)methyl (4-(morpholine-4-carbonyl)phenyl)carbamate]	6.6
COc1cnc2c(-c3nc4ccc5c(c4s3)CC(C)(CO)O5)cc(C)cc2n1 (stereo not shown) [Example 171, (2-(2-methoxy-7-methylquinoxalin-5-yl)-7-methyl-7,8-dihydrobenzofuro[5,4-d]thiazol-7-yl)methanol]	45

Compounds with a lower IC50, results first:

IC50 [nM]	SMILES
2.4	CCOc1cnc2c(-c3nc4cc(F)c5c(c4s3)C[C@H](COC(=O)Nc3cnc(C)nc3)O5)cc(C)cc2n1 [Example 153, (R)-(2-(2-ethoxy-7-methylquinoxalin-5-yl)-5-fluoro-7,8-dihydrobenzofuro[5,4-d]thiazol-7-yl)methyl (2-methylpyrimidin-5-yl)carbamate]
1	COc1ccc(NC(=O)OC[C@H]2COc3c(cc(F)c4nc(-c5cc(C)cc6nc(OC)cnc56)sc34)O2)cn1 [Example 68, (R)-(4-fluoro-2-(2-methoxy-7-methylquinoxalin-5-yl)-7,8-dihydro-[1,4]dioxino[2′,3′:3,4]benzo[1,2-d]thiazol-7-yl)methyl (6-methoxypyridin-3-yl)carbamate]
2.6	COc1cnc2c(-c3nc4ccc5c(c4s3)OC[C@H](COC(=O)Nc3ccc(Br)nc3)O5)cc(C)cc2n1 [Example 109, (R)-(2-(2-methoxy-7-methylquinoxalin-5-yl)-7,8-dihydro-[1,4]dioxino[2′,3′:3,4]benzo[1,2-d]thiazol-7-yl)methyl (6-bromopyridin-3-yl)carbamate]
1.5	COc1cnc2c(-c3nc4c(Cl)cc5c(c4s3)OC[C@H](COC(=O)Nc3ccc4[nH]c(=O)oc4c3)O5)cc(C)cc2n1 [Example 66, (R)-(4-chloro-2-(2-methoxy-7-methylquinoxalin-5-yl)-7,8-dihydro-[1,4]dioxino[2′,3′:3,4]benzo[1,2-d]thiazol-7-yl)methyl (2-oxo-2,3-dihydrobenzo[d]oxazol-6-yl)carbamate]
2	COc1cnc2c(-c3nc4ccc5c(c4s3)OC[C@H](COC(=O)Nc3ccc4[nH]c(=O)oc4c3)O5)cc(C)cc2n1 [Example 106, (R)-(2-(2-methoxy-7-methylquinoxalin-5-yl)-7,8-dihydro-[1,4]dioxino[2′,3′:3,4]benzo [1,2-d]thiazol-7-yl)methyl (2-oxo-2,3-dihydrobenzo[d]oxazol-6-yl)carbamate]
1.8	COc1cnc2c(-c3nc4ccc5c(c4s3)OC[C@H](COC(=O)Nc3cnc(OC[C@@H](C)O)nc3)O5)cc(Cl)cc2c1 [Example 289, ((R)-2-(6-chloro-3-methoxyquinolin-8-yl)-7,8-dihydro-[1,4]dioxino[2′,3′:3,4]benzo[1,2-d]thiazol-7-yl)methyl (2-((R)-2-hydroxypropoxy)pyrimidin-5-yl)carbamate]
1.7	COc1cnc2c(-c3nc4ccc5c(c4s3)C[C@@](C)(CO)O5)cc(C)cc2n1 (single isomer, unassigned) [Example 187]
2.7	COc1cnc2c(-c3nc4c(C)cc5c(c4s3)OCC(COC(=O)Nc3cccnc3)O5)cc(CO)cc2n1 (stereo not shown) [Example 90, (2-(7-(hydroxymethyl)-2-methoxyquinoxalin-5-yl)-4-methyl-7,8-dihydro-[1,4]dioxino[2′,3′:3,4]benzo[1,2-d]thiazol-7-yl)methyl pyridin-3-ylcarbamate]
2.9	COc1cnc2c(-c3nc4c(Cl)cc5c(c4s3)OC[C@H](COC(=O)Nc3ccc(F)nc3)O5)cc(C)cc2n1 [Example 29, (R)-(4-chloro-2-(2-methoxy-7-methylquinoxalin-5-yl)-7,8-dihydro-[1,4]dioxino[2′,3′:3,4]benzo[1,2-d]thiazol-7-yl)methyl (6-fluoropyridin-3-yl)carbamate]
1	COc1cnc2c(-c3cc4c5c(cc(Cl)c4o3)O[C@@H](COC(=O)Nc3ccc(C)nc3)CO5)cc(C)cc2n1 [Example 7, (R)-(6-chloro-8-(2-methoxy-7-methylquinoxalin-5-yl)-2,3-dihydro-[1,4]dioxino[2,3-e]benzofuran-3-yl)methyl (6-methylpyridin-3-yl)carbamate]
3.2	COc1cnc2c(-c3nc4c(C)cc5c(c4s3)OCC(COC(=O)Nc3cncc(C)c3)O5)cc(C)cc2n1 (stereo not shown) [Example 124, (2-(2-methoxy-7-methylquinoxalin-5-yl)-4-methyl-7,8-dihydro-[1,4]dioxino[2′,3′:3,4]benzo[1,2-d]thiazol-7-yl)methyl (5-methylpyridin-3-yl)carbamate]
2.6	COc1cnc2c(-c3nc4c(Cl)cc5c(c4s3)CC(COC(=O)Nc3ccc(C)nc3)O5)cc(C)cc2n1 (stereo not shown) [Example 19, (4-chloro-2-(2-methoxy-7-methylquinoxalin-5-yl)-7,8-dihydrobenzofuro[5,4-d]thiazol-7-yl)methyl (6-methylpyridin-3-yl)carbamate]
3.9	COc1cnc2c(-c3nc4c(C)cc5c(c4s3)OCC(COC(=O)Nc3cncc(Cl)c3)O5)cc(C)cc2n1 (stereo not shown) [Example 132, (2-(2-methoxy-7-methylquinoxalin-5-yl)-4-methyl-7,8-dihydro-[1,4]dioxino[2′,3′:3,4]benzo[1,2-d]thiazol-7-yl)methyl (5-chloropyridin-3-yl)carbamate]
